The values below come from patent US8748661B2, “Polyamino polyketide antibiotics and uses thereof” (priority 2008, dated 2014).

≈ marks a conversion by molar mass, not a printed value. Where only a bound is given, the exact number is not on record here.

Format in all cases: cell-based
Experiment [1] deals with E. coli DH5α. Nature of the experiment: MIC determination (NCCLS, 96-well, LB). Conditions: Escherichia coli, 1 × 10^6 CFU/ml in LB, 30° C., 24 h. The protocol:
(§1) The minimum inhibition concentration (MIC) of zeamine I was carried out according to the NCCLS guidelines (4). Briefly, 96-well plates containing 2-fold serial dilutions of zeamine I and control antibiotics were prepared with LB liquid medium. The fresh overnight LB cultures of tested bacterial strains were then inoculated to the above plates after dilution to yield a final density of 10^6 CFU/ml and 10^7 CFU/ml, respectively. The plates were then incubated with gentle shaking at 30° C. or 37° C. depending on the preferred growth temperature of the tested strains. After 24 h, the plates were collected to measure OD600. The MIC was defined as the lowest concentration of the antibiotic allowing no visible growth. The MIC assay was repeated twice each time with triplicate.

Experiment [2] deals with Bacillus cereus XJ8. In words: MIC determination (NCCLS, 96-well, LB). Conditions: 1 × 10^6 CFU/ml in LB, 30° C., 24 h. How it is done: as §1
Experiment [3] concerns Staphylococcus aureus BBA-41. In words: MIC determination (NCCLS, 96-well, LB). Conditions: BBA41, 1 × 10^6 CFU/ml in LB, 30° C., 24 h. The protocol: as §1
The test system of experiment [4] is Burkholderia cepacia J2315. Nature of the experiment: MIC determination (NCCLS, 96-well, LB). The settings on record: 1 × 10^6 CFU/ml in LB, 30° C., 24 h. The protocol:
as §1

The test system of experiment [5] is Staphylococcus aureus ATCC 25531. Nature of the experiment: MIC determination (NCCLS, 96-well, LB). Conditions: ATCC25531, 1 × 10^6 CFU/ml in LB, 30° C., 24 h. The protocol: as §1
The test system of experiment [6] is Pseudomonas aeruginosa PAO1. In words: MIC determination (NCCLS, 96-well, LB). The settings on record: 1 × 10^6 CFU/ml in LB, 30° C., 24 h. How it is done: as §1
Experiment [7] has as its system Aeromonas hydrophila. In words: MIC determination (NCCLS, 96-well, LB). The settings on record: 1 × 10^6 CFU/ml in LB, 30° C., 24 h. The protocol: as §1
For experiment [8], the system named is Pseudomonas aeruginosa PA14. Nature of the experiment: MIC determination (NCCLS, 96-well, LB). Conditions: 1 × 10^6 CFU/ml in LB, 30° C., 24 h. How it is done:
as §1

In experiment [9] the test system is Enterobacter aerogenes ATCC 13048. Nature of the experiment: MIC determination (NCCLS, 96-well, LB). Conditions: Klebsiella aerogenes, ATCC13048, 1 × 10^6 CFU/ml in LB, 30° C., 24 h. How it is done: as §1
Experiment [10] relates to Salmonella enterica. Nature of the experiment: MIC determination (NCCLS, 96-well, LB). The settings on record: 24 h. The protocol:
as §1

Experiment [11] relates to E. coli CFT073. In words: MIC determination (NCCLS, 96-well, LB). The settings on record: Escherichia coli, 1 × 10^6 CFU/ml in LB, 30° C., 24 h. The protocol: as §1
Experiment [12] deals with Burkholderia cepacia H111. In words: MIC determination (NCCLS, 96-well, LB). Conditions: 1 × 10^6 CFU/ml in LB, 30° C., 24 h. The protocol:
as §1

The subject of experiment [13] is Klebsiella pneumonia. Nature of the experiment: MIC determination (NCCLS, 96-well, LB). The settings on record: Klebsiella pneumoniae, 1 × 10^6 CFU/ml in LB, 30° C., 24 h. The protocol:
as §1

Experiment [14] deals with Escherichia coli strain DH5α. In words: Antibiotic bioassay (agar well inhibition zone). The settings on record: 20 microliters of fraction in 4-mm wells, 37° C. overnight. How it is done:
The bactericidal activity was assayed using Escherichia coli strain DH5α following the method described previously by Zhang et al. (Zhang et al. (1998). Factors affecting biosynthesis by Xanthomonas albilineans of albicidin antibiotics and phytotoxins. J. Appl. Microbiol. 85: 1023-1028). Briefly, an overnight LB culture of strain DH5α was diluted by 10-fold in sterilized water, and 100 microliters of the dilute were added to 5 ml of 1% agarose solution, which was autoclaved with temperature being maintained at 50° C. The bioassay plate was prepared by adding the mixture onto a plate containing 20 ml LB agar. Bioassay was conducted by adding 20 microliters of bacterial supernatants or fractions to the 4-mm diameter wells in bioassay plate. The plate was incubated at 37° C. overnight before examination of inhibition zone.

The test system of experiment [15] is Gram-negative and Gram-positive bacterial pathogens. Nature of the experiment: MIC on a range of bacterial pathogens (summary statement). The settings on record: summary of Table 3, in words. How it is done:
as §1
The minimum inhibition concentration (MIC) of zeamine I was determined on a range of bacterial pathogens. […] In contrast, a high dosage of ampicillin, which is a commonly used antibiotic, was required to inhibit the growth of these bacterial pathogens.

In general, MIC refers to the lowest concentration that inhibits growth of the organism. For `NC[C@H]1O[C@H](O[C@H]2[C@H](O)[C@@H](O[C@H]3O[C@H](CO)[C@@H](O)[C@H](N)[C@H]3O)[C@H](N)C[C@@H]2N)[C@H](O)[C@@H](O)[C@@H]1O` [Kanamycin], the MIC stood at 10 µg/mL (≈ 20.6 µM) in experiment [1]; 3.1 µg/mL (≈ 6.4 µM) in experiment [2]; 12.5 µg/mL (≈ 25.8 µM) in [3]; 400 µg/mL (≈ 826 µM) in experiment [4]; 6.2 µg/mL (≈ 12.8 µM) in experiment [5]; 200 µg/mL (≈ 413 µM) in experiment [6]. In addition, the MIC came to 25 µg/mL (≈ 51.6 µM) in [7]; 200 µg/mL (≈ 413 µM) in [8]; 3.1 µg/mL (≈ 6.4 µM) in experiment [9]; 12.5 µg/mL (≈ 25.8 µM) in [10]; 6.2 µg/mL (≈ 12.8 µM) in experiment [11]; 6.2 µg/mL (≈ 12.8 µM) in experiment [12]. In experiment [13], this compound displayed an MIC of 3.1 µg/mL (≈ 6.4 µM).
Take `CCCCCC(N)CCCCCCCC(N)CCCCCCCC(N)CCCCCCCC(N)CCCCCCCC(O)CCN` (stereo not drawn) [Zeamine II]: in experiment [14], the “antibiotic activity of HPLC fraction in bioassay” value was “minor active fraction”.
As to `CN(C)[C@@H]1C(O)=C(C(N)=O)C(=O)[C@@]2(O)C(O)=C3C(=O)c4c(O)cccc4[C@@](C)(O)[C@H]3C[C@@H]12` [Tetracycline], the MIC in experiment [1] was 3.1 µg/mL (≈ 6.98 µM); in experiment [2], 6.2 µg/mL (≈ 14 µM); in experiment [3], 6.2 µg/mL (≈ 14 µM); in [4], 50 µg/mL (≈ 113 µM); in experiment [5], 3.1 µg/mL (≈ 6.98 µM); in experiment [7] it was 6.2 µg/mL (≈ 14 µM). Moreover, the MIC was 12.5 µg/mL (≈ 28.1 µM) in experiment [8]; 3.1 µg/mL (≈ 6.98 µM) in experiment [9]; 0.75 µg/mL (≈ 1.69 µM) in experiment [11]; 12.5 µg/mL (≈ 28.1 µM) in [12]; 6.2 µg/mL (≈ 14 µM) in experiment [13].
Turning to `CC1(C)S[C@@H]2[C@H](NC(=O)[C@H](N)c3ccccc3)C(=O)N2[C@H]1C(=O)O` [Ampicillin], in experiment [15], the “dosage required to inhibit the growth of these bacterial pathogens” value is given as “high dosage”. Besides, the MIC in experiment [1] was 25 µg/mL (≈ 71.5 µM); in experiment [2], 100 µg/mL (≈ 286 µM); in experiment [3], above 500 µg/mL; in experiment [4], above 800 µg/mL; in experiment [5], 15.6 µg/mL (≈ 44.6 µM); in experiment [6], 400 µg/mL (≈ 1140 µM). Further, the MIC in experiment [7] was 125 µg/mL (≈ 358 µM); in [8], 800 µg/mL (≈ 2290 µM); in [9] it was above 800 µg/mL; in [10], 12.5 µg/mL (≈ 35.8 µM); in experiment [11] it was 25 µg/mL (≈ 71.5 µM); in experiment [12], above 800 µg/mL. The same compound came in with an MIC in experiment [13] above 800 µg/mL.
